In article PMC6366423 (Journal of Enzyme Inhibition and Medicinal Chemistry, 2019):
Several values for one entry are separate records, joined by “and”; a condition that tells them apart may be missing. Equal values may be shown once. Read-outs that look alike come from different tables or passages of the source.

Assays:
[1] = target: T1, hBuChE (Homo sapiens, UniProt P06276); assay: biochemical; format: biochemical; settings: for IC50: mean ± SEM; for inhibition at 10 µM: read-out: hBuChE enzymatic inhibition (%)
T1 construct: hBuChE from human serum (Sigma Aldrich, Madrid, Spain); purchased Sigma Aldrich; host or cells: human serum
T1 sequence (P06276 29-602): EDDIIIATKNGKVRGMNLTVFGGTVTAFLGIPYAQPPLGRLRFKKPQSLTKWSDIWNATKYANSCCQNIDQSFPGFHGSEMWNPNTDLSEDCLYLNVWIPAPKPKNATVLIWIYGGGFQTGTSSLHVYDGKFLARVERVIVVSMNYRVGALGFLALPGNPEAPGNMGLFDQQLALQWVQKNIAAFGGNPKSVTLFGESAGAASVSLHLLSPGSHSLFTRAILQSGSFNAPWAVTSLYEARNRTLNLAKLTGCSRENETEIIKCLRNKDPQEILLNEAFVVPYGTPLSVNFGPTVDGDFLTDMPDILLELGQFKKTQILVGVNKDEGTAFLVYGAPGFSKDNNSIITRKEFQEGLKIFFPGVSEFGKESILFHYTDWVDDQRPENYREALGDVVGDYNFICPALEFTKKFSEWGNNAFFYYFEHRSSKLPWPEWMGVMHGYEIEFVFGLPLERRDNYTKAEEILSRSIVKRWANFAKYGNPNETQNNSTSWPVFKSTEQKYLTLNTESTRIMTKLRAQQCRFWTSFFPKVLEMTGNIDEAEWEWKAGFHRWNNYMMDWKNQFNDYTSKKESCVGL

[2] = target: T2, hAChE (Homo sapiens, UniProt P22303); assay: biochemical; format: biochemical; settings: for IC50: mean ± SEM; for inhibition at 10 µM: read-out: hAChE enzymatic inhibition (%)
T2 construct: purchased Sigma Aldrich; host or cells: HEK 293
T2 sequence (P22303 32-614): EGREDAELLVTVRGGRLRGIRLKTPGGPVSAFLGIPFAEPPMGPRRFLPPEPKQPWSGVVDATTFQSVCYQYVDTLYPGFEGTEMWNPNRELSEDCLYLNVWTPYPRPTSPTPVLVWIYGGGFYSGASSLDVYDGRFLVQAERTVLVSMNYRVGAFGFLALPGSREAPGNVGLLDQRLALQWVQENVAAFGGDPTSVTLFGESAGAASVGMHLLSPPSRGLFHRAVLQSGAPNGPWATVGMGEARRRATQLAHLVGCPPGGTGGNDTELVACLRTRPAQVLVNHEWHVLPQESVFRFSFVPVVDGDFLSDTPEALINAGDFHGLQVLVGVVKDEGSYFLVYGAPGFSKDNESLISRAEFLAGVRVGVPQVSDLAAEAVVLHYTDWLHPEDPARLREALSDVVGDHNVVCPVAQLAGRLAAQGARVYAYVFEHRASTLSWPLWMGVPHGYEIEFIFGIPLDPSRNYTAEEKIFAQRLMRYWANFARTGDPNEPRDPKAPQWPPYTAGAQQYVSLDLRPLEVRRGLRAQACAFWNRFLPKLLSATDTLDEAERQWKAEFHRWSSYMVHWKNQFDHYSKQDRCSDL

[3] = Oxygen radical absorbance capacity assay (ORAC-FL); settings: Trolox equivalents (TE), mean (n = 3) ± SD
[4] = target: T3, hMAOB (Homo sapiens, UniProt P27338); assay: MAO activity assay (kynuramine, HPLC-MS); format: biochemical; settings: for inhibition at 10 µM: read-out: hMAOB enzymatic inhibition (%); for IC50: IC50 hMAOB, mean ± SEM
T3 sequence (P27338 1-520): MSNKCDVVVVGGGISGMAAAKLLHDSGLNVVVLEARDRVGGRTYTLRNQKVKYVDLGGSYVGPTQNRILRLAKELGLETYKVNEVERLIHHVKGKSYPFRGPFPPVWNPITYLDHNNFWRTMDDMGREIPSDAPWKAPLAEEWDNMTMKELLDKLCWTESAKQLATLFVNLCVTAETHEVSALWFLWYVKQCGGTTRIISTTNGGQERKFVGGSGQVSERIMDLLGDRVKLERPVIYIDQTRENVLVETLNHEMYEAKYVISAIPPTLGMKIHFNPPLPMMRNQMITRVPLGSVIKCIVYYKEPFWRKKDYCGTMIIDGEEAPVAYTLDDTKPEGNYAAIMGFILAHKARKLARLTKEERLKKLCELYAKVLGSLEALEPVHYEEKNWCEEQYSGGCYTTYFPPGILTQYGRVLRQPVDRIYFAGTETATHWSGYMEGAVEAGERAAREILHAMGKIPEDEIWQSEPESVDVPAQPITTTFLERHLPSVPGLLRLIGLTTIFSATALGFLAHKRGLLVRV

[5] = target: T4, eqBuChE (Equus caballus, UniProt P81908); assay: biochemical; format: biochemical, equine; settings: for IC50: mean ± SEM
T4 construct: eqBuChE (purified from equine serum); from tissue; host or cells: equine serum
T4 sequence (P81908 whole entry): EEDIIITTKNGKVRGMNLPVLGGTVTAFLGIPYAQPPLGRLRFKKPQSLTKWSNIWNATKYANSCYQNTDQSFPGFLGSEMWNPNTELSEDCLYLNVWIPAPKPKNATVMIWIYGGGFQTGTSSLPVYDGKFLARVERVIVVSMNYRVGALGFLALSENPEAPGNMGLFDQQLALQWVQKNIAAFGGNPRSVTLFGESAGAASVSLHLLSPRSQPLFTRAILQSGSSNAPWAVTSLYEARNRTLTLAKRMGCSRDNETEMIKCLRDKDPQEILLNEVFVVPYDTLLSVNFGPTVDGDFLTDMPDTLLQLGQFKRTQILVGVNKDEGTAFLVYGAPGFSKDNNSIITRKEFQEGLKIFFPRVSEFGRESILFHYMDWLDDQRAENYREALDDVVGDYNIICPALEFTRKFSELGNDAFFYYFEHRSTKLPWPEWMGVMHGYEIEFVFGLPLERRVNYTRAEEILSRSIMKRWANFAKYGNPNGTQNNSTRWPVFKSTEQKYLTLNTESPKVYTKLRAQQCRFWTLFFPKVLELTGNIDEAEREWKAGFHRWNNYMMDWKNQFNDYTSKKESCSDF
Description: (§1) Inhibition of EeAChE and eqBuChE of hybrids 14a–p was carried out with EeAChE (type VI-S, purified from Electrophorus electricus) and eqBuChE (purified from equine serum) using Ellman’s protocol. Briefly, the reaction was performed in a final volume of 3 ml of a phosphate-buffered solution (0.1 M) at pH = 8.0 containing 5,5’-dithiobis-2-nitrobenzoic acid (DTNB) (2.625 μL, 0.35 mM), EeAChE (29 μl, 0.035 U/mL) or eqBuChE (60 μl, 0.05 U/mL), Bovine Albumin Serum phosphate-buffered solution (40 μL 1% w/v), and tested compound (3 µL). After 10 min of incubation, the substrate, AcTCh) iodide or butyrylthiocholine (BuTCh) iodide, was added, and the reaction was incubated for an additional 15 min.

[6] = target: T5, EeAChE (Electrophorus electricus, UniProt O42275); assay: biochemical; settings: for inhibition at 10 µM: read-out: EeAChE enzymatic inhibition (%)
T5 construct: EeAChE (type VI-S, purified from Electrophorus electricus); tissue type VI-S
T5 sequence (O42275 24-633): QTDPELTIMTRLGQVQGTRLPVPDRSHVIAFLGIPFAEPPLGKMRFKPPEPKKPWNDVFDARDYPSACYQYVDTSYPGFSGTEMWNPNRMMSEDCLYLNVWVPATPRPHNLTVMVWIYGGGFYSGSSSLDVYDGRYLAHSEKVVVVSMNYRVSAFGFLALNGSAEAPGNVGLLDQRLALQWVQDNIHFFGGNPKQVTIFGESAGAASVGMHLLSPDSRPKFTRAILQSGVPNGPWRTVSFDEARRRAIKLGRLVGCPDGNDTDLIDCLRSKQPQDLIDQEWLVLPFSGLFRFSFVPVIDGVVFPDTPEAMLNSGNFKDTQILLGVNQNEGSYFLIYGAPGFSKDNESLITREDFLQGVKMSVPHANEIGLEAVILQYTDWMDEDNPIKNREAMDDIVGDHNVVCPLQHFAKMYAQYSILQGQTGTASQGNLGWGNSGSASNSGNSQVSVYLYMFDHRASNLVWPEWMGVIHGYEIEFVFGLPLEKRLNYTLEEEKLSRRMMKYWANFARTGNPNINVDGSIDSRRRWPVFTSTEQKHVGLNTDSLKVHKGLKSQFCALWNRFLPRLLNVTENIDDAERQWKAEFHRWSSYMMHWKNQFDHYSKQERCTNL
Description: as §1

[7] = target: T6, hMAOA (Homo sapiens, UniProt P21397); assay: MAO activity assay (kynuramine, HPLC-MS); format: biochemical; settings: for inhibition at 10 µM: read-out: hMAOA enzymatic inhibition (%)
T6 sequence (P21397 1-527): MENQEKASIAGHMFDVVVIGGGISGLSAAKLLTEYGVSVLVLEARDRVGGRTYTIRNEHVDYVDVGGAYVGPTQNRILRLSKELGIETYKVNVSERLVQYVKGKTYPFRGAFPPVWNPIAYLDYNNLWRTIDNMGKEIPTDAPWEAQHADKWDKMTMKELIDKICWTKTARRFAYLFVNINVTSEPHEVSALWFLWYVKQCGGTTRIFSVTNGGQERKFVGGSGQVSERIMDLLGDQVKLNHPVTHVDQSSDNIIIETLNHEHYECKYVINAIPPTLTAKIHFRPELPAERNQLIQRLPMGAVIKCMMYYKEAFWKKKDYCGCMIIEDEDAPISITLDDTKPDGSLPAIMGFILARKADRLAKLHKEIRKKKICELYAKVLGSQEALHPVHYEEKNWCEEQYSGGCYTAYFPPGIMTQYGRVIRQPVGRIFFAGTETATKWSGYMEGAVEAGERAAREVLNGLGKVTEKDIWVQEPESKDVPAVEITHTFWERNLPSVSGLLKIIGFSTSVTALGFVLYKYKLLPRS

[8] = ORAC-FL, positive reference molecules; cited from earlier work

SMILES	IC50 [1] [nM]	IC50 [2] [nM]	ORAC (Eq Trolox) [3] [Eq Trolox]	inhibition at 10 µM [4] [%]	IC50 [5] [nM]	IC50 ([6]; mean ± SEM) [nM]	inhibition at 10 µM [7] [%]	inhibition at 10 µM [1] [%]	inhibition at 10 µM ([2]; at 10 μM) [%]	also measured
O=C(CN(CCC1CCN(Cc2ccccc2)CC1)C(=O)c1cc(=O)c2ccccc2o1)NCCc1c[nH]c2ccccc12 [14e]	33.3 ± 0.55	2620 ± 530	6.52 ± 0.37	< 40	29.6 ± 2.38	1430 ± 50	< 40			
O=C(CN(CCCC1CCN(Cc2ccccc2)CC1)C(=O)c1cc(=O)c2ccccc2o1)NCCc1c[nH]c2ccccc12 [14i]			6.92	< 40	50.1 ± 5.19	260 ± 10	< 40	< 50	< 50	ORAC (Eq Trolox) ([3]; listed as [14]i): 6.92 ± 0.32 Eq Trolox
CCCOc1ccc2[nH]cc(CCNC(=O)CN(CCCC3CCN(Cc4ccccc4)CC3)C(=O)c3cc(=O)c4ccccc4o3)c2c1 [14l]			2.44 ± 0.16	< 40	9.03 ± 0.18	380 ± 10	< 40	< 50	< 50	
O=C(CN(CC1CCN(Cc2ccccc2)CC1)C(=O)c1cc(=O)c2ccccc2o1)NCCc1c[nH]c2ccccc12 [14a]	1170		6.28 ± 0.12	< 40	496 ± 7.07				< 50	inhibition at 10 µM [6]: < 50%; IC50 [7]: 2000 nM
CC(C)Oc1ccc2[nH]cc(CCNC(=O)CN(CCCC3CCN(Cc4ccccc4)CC3)C(=O)c3cc(=O)c4ccccc4o3)c2c1 [14k]	34.9 ± 0.85		2.27		18.21 ± 0.18	360 ± 10				hAChE enzymatic inhibition (%) ([2]; at 10 μM): – ^b; ORAC (Eq Trolox) ([3]; listed as [14]k): 2.27 ± 0.37 Eq Trolox; IC50 [4]: 15200 nM; IC50 [7]: 2990 ± 160 nM
COc1cc(/C=C/C(=O)O)ccc1O [Ferulic acid]										ORAC (Eq Trolox) [8]: 3.74 Eq Trolox and 3.74 ± 0.22 Eq Trolox
COc1ccc2[nH]cc(CCNC(=O)CN(CCCCC3CCN(Cc4ccccc4)CC3)C(=O)c3cc(=O)c4ccccc4o3)c2c1 [14n, N-(4–(1-benzylpiperidin-4-yl)butyl)-N-(2-((2–(5-methoxy-1H-indol-3-yl)ethyl)amino)-2-oxoethyl)-4-oxo-4H-chromene-2-carboxamide]	11.9 ± 0.05	1730 ± 340	3.04		43.4 ± 1.37	480 ± 10				hBuChE, fold less active than Tacrine [1]: 2 fold; ORAC (Eq Trolox) ([3]; listed as [14]n): 3.04 ± 0.36 Eq Trolox; IC50 [4]: 21300 nM; IC50 [7]: 2780 ± 120 nM
COc1ccc2[nH]cc(CCNC(=O)CN(CC3CCN(Cc4ccccc4)CC3)C(=O)c3cc(=O)c4ccccc4o3)c2c1 [14b]			6.24 ± 0.05	< 40	636 ± 11.6		< 40	< 50	< 50	inhibition at 10 µM [6]: < 50%
CC(C)Oc1ccc2[nH]cc(CCNC(=O)CN(CC3CCN(Cc4ccccc4)CC3)C(=O)c3cc(=O)c4ccccc4o3)c2c1 [14c]			6.11 ± 0.07	< 40	246 ± 9.91		< 40	< 50	< 50	inhibition at 10 µM [6]: < 50%
O=C(CN(CCCCC1CCN(Cc2ccccc2)CC1)C(=O)c1cc(=O)c2ccccc2o1)NCCc1c[nH]c2ccccc12 [14m]			2.97 ± 0.16	< 40	355 ± 8.41	60	< 40	< 50	< 50	IC50 ([6]; values given in nM): 58.2 nM
CCCOc1ccc2[nH]cc(CCNC(=O)CN(CCCCC3CCN(Cc4ccccc4)CC3)C(=O)c3cc(=O)c4ccccc4o3)c2c1 [14p]	80.4 ± 12.4	2100 ± 510	2.67 ± 0.15	< 40	61.3 ± 5.48	80				IC50 [7]: 1390 ± 110 nM
COc1ccc2[nH]cc(CCNC(=O)CN(CCC3CCN(Cc4ccccc4)CC3)C(=O)c3cc(=O)c4ccccc4o3)c2c1 [14f]	271.8 ± 1.75	360 ± 160	6.13 ± 0.09		26 ± 2.37		< 40			hAChE, fold less active than Donepezil [2]: 15 fold; IC50 [4]: 80600 ± 13900 nM
COc1ccc2[nH]cc(CCNC(=O)CN(CCCC3CCN(Cc4ccccc4)CC3)C(=O)c3cc(=O)c4ccccc4o3)c2c1 [14j]			3.31 ± 0.10	< 40	37.1 ± 0.46	270	< 40	< 50	< 50	
CCCOc1ccc2[nH]cc(CCNC(=O)CN(CC3CCN(Cc4ccccc4)CC3)C(=O)c3cc(=O)c4ccccc4o3)c2c1 [14d]			6.76 ± 0.09		46.9 ± 3.41		< 40	< 50	< 50	inhibition at 10 µM [6]: < 50%
CC(C)Oc1ccc2[nH]cc(CCNC(=O)CN(CCCCC3CCN(Cc4ccccc4)CC3)C(=O)c3cc(=O)c4ccccc4o3)c2c1 [14o]			2.63 ± 0.12	< 40	46.6 ± 2.76	90	< 40	< 50	< 50	IC50 ([6]; values given in nM): 88.5 nM
CCCOc1ccc2[nH]cc(CCNC(=O)CN(CCC3CCN(Cc4ccccc4)CC3)C(=O)c3cc(=O)c4ccccc4o3)c2c1 [14h]	63.9 ± 2.55	2040 ± 660	6.07 ± 0.02	< 40	6.76 ± 0.49	850 ± 20	< 40			eqBuChE potency, fold more potent than Donepezil [5]: 133 fold
CC(C)Oc1ccc2[nH]cc(CCNC(=O)CN(CCC3CCN(Cc4ccccc4)CC3)C(=O)c3cc(=O)c4ccccc4o3)c2c1 [14g]	25 ± 0.2	2000 ± 70	5.05 ± 0.15	< 40	6.29 ± 0.73	1050 ± 60	< 40			eqBuChE potency, fold more potent than Donepezil [5]: 133 fold
Nc1c2c(nc3ccccc13)CCCC2 [Tacrine, reference compound]			0.2 ± 0.1							
